Structures can show the parent of a compound that is named as a salt. Where two headings read alike, the source gives them in different places.
Tests used:
rats (conflict tests) = assay: anxiolytic activity in conflict situation model; format: in vivo; conditions: for minimal effective dose: Rattus norvegicus, read-out: Anxiolytic activity MED in conflict tests
Method: (§1) The compounds were introduced intraperitoneally and orally 20-60 minutes before the beginning of the test. The minimum effective doses (MED) increasing the number of water takings and increasing the period of staying in an illuminated area by at least 50%, were determined. The neuroleptic activity was detected and measured using the "rat fight" method and the "climbing" test of mice (P. Protais et al. Psychopharmacology, 50, p. 1, 1976). […] The antiemetic effect on vomiting caused by apomorphine or cisplatin was studied in pigeons (P. Presiosi et al., Arch. Int. Pharmacodyn., 298, p. 301, 1989) and mongrel dogs having a weight of 6-8 kg.

[1] = system: rats (avoiding illuminated area tests); assay: anxiolytic activity by the method of avoiding illuminated areas; format: in vivo; conditions: for minimal effective dose: Rattus norvegicus, read-out: Anxiolytic activity MED in "avoiding illuminated area" tests
Method: as §1

mice = assay: antiapomorphine activity in "climbing" test of mice; format: in vivo; conditions: for ED50: Mus musculus, ip, read-out: Antiapomorphine activity in "climbing" test ED50
Method: as §1

[2] = hexobarbital-potentiation effect (narcosepotentiation, nonnarcotic dose of hexobarbital); format: in vivo; conditions: for ED50: read-out: Hexobarbital-potentiation effect ED50
[3] = sedative activity, suppression of motor activity (spontaneous locomotion); format: in vivo; conditions: for ED50: ip, read-out: Sedative activity ED50, suppression of motor activity
[4] = sedative activity, suppression of orientation behaviour; format: in vivo; conditions: ip, read-out: Sedative activity ED50, suppression of orientation behaviour
[5] = myorelaxation activity, rotating rod test; format: in vivo; conditions: for ED50: ip, read-out: Myorelaxation activity ED50
in vivo = conditions: ip
rat = assay: antiaggressive activity ("rat fight" method); format: in vivo; conditions: for ED50: Rattus norvegicus, read-out: Antiaggressive activity ED50
Method: as §1

pigeons [6] = assay: antiemetic activity, vomiting caused by apomorphine in pigeons; format: in vivo; conditions: for ED50: Columbidae, ip, read-out: Antiemetic activity, ED50
Method: as §1

pigeons [7] = assay: antiemetic activity, vomiting caused by cisplatin in pigeons; format: in vivo; conditions: Columbidae, ip, read-out: Antiemetic activity, ED50
Method: as §1

mongrel dogs [8] = assay: antiemetic activity, vomiting caused by apomorphine in dogs; format: in vivo; conditions: Canis lupus familiaris; dog tests
Method: as §1

mongrel dogs [9] = assay: antiemetic activity, vomiting caused by cisplatin in dogs; format: in vivo; conditions: Canis lupus familiaris; dog tests
Method: as §1

[10] = cataleptogenic (extrapyramidic) activity; conditions: in vivo
[11] = effect characteristic of tranquilizers and neuroleptics (anxiolytic, antiaggressive, antiapomorphine and hexobarbital-potentiation effects); format: in vivo; conditions: systematic application of dihydrochloride
Method: as §1

[12] = from Table 2
[13] = ip, rats, i/p, minimum effective dose increasing number of water takings by at least 50%, dihydrochlorides of I, VI, VII
[14] = ip, rats, i/p, minimum effective dose increasing period of staying in illuminated area by at least 50%
[15] = po, rats, orally, minimum effective dose increasing number of water takings by at least 50%, dihydrochlorides of I, VI, VII
[16] = po, rats, orally, minimum effective dose increasing period of staying in illuminated area by at least 50%
[17] = pigeons, vomiting caused by apomorphine, i/p
[18] = pigeons, vomiting caused by cisplatin, i/p

`O=C1CC2(CCCC2)CC(=O)N1CCCCN1CCN(c2ncccn2)CC1` [VI, 8-[4-[4-(2-pyrimidinyl)-1-piperazinyl]butyl]-8-azaspiro[4,5]decane-7 ,9-dione] showed a minimal effective dose (rats (conflict tests); [13]) of 3 mg/kg, a minimal effective dose [1, 14] of 3 mg/kg and an ED50 (mice; mice, i/p) of 2.6 ± 0.46 mg/kg. The ED50 ([2]; ip, i/p) was 8.2 ± 2.4 mg/kg, the ED50 ([3]; i/p) was 8.7 ± 1.8 mg/kg and the ED50 ([4]; i/p) was 7.6 ± 1.9 mg/kg. The ED50 ([5]; i/p) was 54.2 ± 8.1 mg/kg and the LD50 (in vivo) was 140 ± 20 mg/kg.
For `CC12CCC(C(=O)N(CCCCN3CCN(c4ccccn4)CC3)C1=O)C2(C)C` (racemic) [Compound I, DL-3-[4-[4-(2-pyridyl)-1-piperazinyl]-butyl]-1,8,8-trimethyl-3-azabicyclo[3,2,1]octane-2,4-dione dihydrochloride], the minimal effective dose (rats (conflict tests); [13]) was 1 mg/kg, the minimal effective dose (rats (conflict tests); [15]) was 3 mg/kg and the “antianxiety activity relative to buspirone and said bicyclic imides” value (rats (conflict tests); conflict situation model) was “three times as large”. The “anxiolytic doses compared with diazepame” value (rats (conflict tests); intraperitoneally) was “coincide with the similar doses of diazepame”, the “anxiolytic activity relative to compounds VI, VII” value (rats (conflict tests); two anxiety models, intraperitoneally, conflict test) was “three times as large” and the minimal effective dose [1, 14] was 1 mg/kg. The minimal effective dose [1, 16] was 10 mg/kg, the “anxiolytic activity relative to compounds VI, VII” value ([1]; two anxiety models, intraperitoneally, avoiding illuminated area) was “three times as large” and the ED50 (rat; ip, i/p) was 7.45 ± 1.6 mg/kg. The ED50 (rat; po, orally) was 30.8 ± 4.14 mg/kg, the “antiaggressive activity relative to buspirone and bicyclic imides” value (rat; antiaggressive test) was “two to four times as large” and the ED50 (mice; mice, i/p) was 0.7 ± 0.13 mg/kg. For the same molecule, the “climbing test activity relative to buspirone and bicyclic imides” value (mice; climbing test) was “two to four times as large”, the “apomorphine antagonism in "climbing" test compared with haloperidol” value (mice; mouse, in vivo) was “comparable to haloperidol” and the “hexobarbital-potentiating activity compared with diazepame” value ([2]; in vivo) was “essentially lower than the activity of diazepame”. The ED50 ([2]; ip, i/p) was 17.6 ± 2.9 mg/kg, the ED50 ([2]; po, orally) was 12.5 ± 3.14 mg/kg and the “sedative activity compared with diazepame” value ([3]; from Table 2) was “much lower than the activity and toxicity of diazepame”. For the same molecule, the ED50 ([3]; i/p) was 2.8 ± 0.7 mg/kg, the ED50 ([4]; i/p) was 3.9 ± 0.9 mg/kg and the “myorelaxation activity compared with diazepame” value ([5]; from Table 2) was “much lower than the activity and toxicity of diazepame”. The ED50 ([5]; i/p) was 44.5 ± 10 mg/kg, the ED50 (pigeons [6]; [17]) was 0.11 ± 0.02 mg/kg and the “antiemetic effect relative to all comparable compounds (haloperidol, triphthazine, metoclopramide)” value (pigeons [6]; fold, versus haloperidol, triphthazine, metoclopramide, emetogen not specified (apomorphine or cisplatin)) was 10-100 times. For the same molecule, the “antiemetic and antiapomorphine activities compared with other compounds” value (pigeons [6]; pigeons, from Table 3) was “substantially higher than those of other compounds”, the ED50 (pigeons [7]; [18]) was 0.4 ± 0.07 mg/kg and the ED50 (mongrel dogs [8]) was 0.02 ± 0.006 mg/kg. The ED50 (mongrel dogs [9]) was 0.013 ± 0.005 mg/kg, the “cataleptogenic (extrapyramidic) activity” value [10] was “free of cataleptogenic (extrapyramidic) activity” and the “dose range producing anxiolytic, antiaggressive, antiapomorphine and hexobarbital-potentiation effects” value [11] was 0.1-50 mg/kg of a body weight. For the same molecule, the “toxicity compared with diazepame” value [12] was “much lower than the activity and toxicity of diazepame” and the LD50 (in vivo) was 208 ± 20 mg/kg.
Work on `O=C(CCCN1CCC(O)(c2ccc(Cl)cc2)CC1)c1ccc(F)cc1` [Haloperidol] yielded a minimal effective dose (rats (conflict tests); ip) greater than 3 mg/kg, an ED50 (mice) of 0.67 ± 0.06 mg/kg and an ED50 (pigeons [6]) of 3.4 ± 0.5 mg/kg. The ED50 (pigeons [7]) was 4.4 ± 0.9 mg/kg.
`CN1C(=O)CN=C(c2ccccc2)c2cc(Cl)ccc21` [Diazepame] gave a minimal effective dose (rats (conflict tests); ip) of 1 mg/kg, a minimal effective dose ([1]; ip) of 1 mg/kg and a minimal effective dose ([1]; po) of 1 mg/kg. It also gave an ED50 (rat; po) of 5.9 ± 1.28 mg/kg, an ED50 ([2]; ip) of 0.3 ± 0.1 mg/kg and an ED50 ([2]; po) of 0.48 ± 0.12 mg/kg. For the same molecule, the ED50 [3] was 0.6 ± 0.2 mg/kg, the ED50 [4] was 0.6 ± 0.2 mg/kg and the ED50 [5] was 2.4 ± 0.2 mg/kg.
Molecule `CN1CCN(CCCN2c3ccccc3Sc3ccc(C(F)(F)F)cc32)CC1` [Trifluoperazine] has an ED50 (pigeons [6]; [17]) of 4.6 ± 0.8 mg/kg and an ED50 (pigeons [7]; [18]) of 5.5 ± 0.9 mg/kg.
With `CC12CCC(C(=O)N(CCCCN3CCN(c4ncccn4)CC3)C1=O)C2(C)C` (racemic) [VII, DL-3-[4-(2-pyrimidinyl)-1-piperazinyl]-butyl]-1,8,8-trimethyl-3azabic yclo[3,2,1]octane-2,4-dione] the minimal effective dose (rats (conflict tests); [13]) was 3 mg/kg, the minimal effective dose (rats (conflict tests); [15]) was 3 mg/kg and the minimal effective dose [1, 14] was 3 mg/kg. The minimal effective dose [1, 16] was 10 mg/kg, the ED50 (rat; ip, i/p) was 28.5 ± 4.2 mg/kg and the ED50 (rat; po, orally) was 81.5 ± 8.3 mg/kg. It also gave an ED50 (mice; mice, i/p) of 1.31 ± 0.15 mg/kg, an ED50 ([2]; ip, i/p) of 11.9 ± 2.2 mg/kg and an ED50 ([2]; po, orally) of 36.5 ± 8.11 mg/kg. The ED50 ([3]; i/p) was 5.4 ± 2.3 mg/kg, the ED50 ([4]; i/p) was 7.7 ± 1.6 mg/kg and the ED50 ([5]; i/p) was 52.5 ± 12 mg/kg. For the same molecule, the ED50 (pigeons [6]; [17]) was 1.8 ± 0.4 mg/kg, the ED50 (pigeons [7]; [18]) was 4.6 ± 0.8 mg/kg and the LD50 (in vivo) was 211 ± 31 mg/kg.
With `CCN1CCCC1CNC(=O)c1cc(S(N)(=O)=O)ccc1OC` (centres unmarked) [Sulpyride] the ED50 (rat; ip, i/p) was 60.6 ± 16.6 mg/kg and the ED50 (mice; mice, i/p) was 8.4 ± 1.3 mg/kg.
For `CCN(CC)CCNC(=O)c1cc(Cl)c(N)cc1OC` [Metoclopramide], the ED50 (pigeons [6]; [17]) was 12 ± 1.7 mg/kg and the ED50 (pigeons [7]; [18]) was 9.7 ± 1.1 mg/kg.
